Test results taken from ChEMBL document CHEMBL2406903, “FPRL-1 Receptor Modulators May Provide Treatment for Inflammation” (ACS Med Chem Lett, 2013).

These compounds were tested against T1, N-formyl peptide receptor 2 (Homo sapiens) (UniProt P25090) (assay: Modulation of FPRL1 (unknown origin) expressed in CHO-Ga16 cells assessed as induction of calcium activity at 0.61 to 10000 nM by FLIPR assay relative to control).
T1 sequence (whole entry): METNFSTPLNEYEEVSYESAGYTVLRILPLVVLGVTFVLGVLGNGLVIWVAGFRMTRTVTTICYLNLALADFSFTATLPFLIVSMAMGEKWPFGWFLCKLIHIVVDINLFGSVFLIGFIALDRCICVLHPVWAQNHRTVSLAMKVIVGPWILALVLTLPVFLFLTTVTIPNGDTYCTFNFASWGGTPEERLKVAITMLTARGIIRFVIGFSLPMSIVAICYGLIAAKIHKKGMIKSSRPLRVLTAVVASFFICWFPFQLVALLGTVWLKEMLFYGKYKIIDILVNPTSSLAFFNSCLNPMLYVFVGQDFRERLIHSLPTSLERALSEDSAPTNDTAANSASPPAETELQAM
Type: functional, cell-based

Structure (SMILES) | fold change (FC)
CC(C)C[C@H](NC(=O)Nc1ccc(C(F)(F)F)cc1)C(=O)NC(C)(C)C(=O)O | 0.92
CC[C@@H](C)[C@@H](NC(=O)Nc1ccc(Br)cc1)C(=O)NCC(=O)O | 0.45
CC(C)C[C@H](NC(=O)Nc1ccc(Br)cc1)C(=O)NC(C)(C)C(=O)O | 0.96
